Measurements: patent publication US20050255469A1, “Human 5-ht7 receptor promoter sequence” (priority 2002, published 2005)
Entries after “also recorded” stand apart in the source; their conditions may differ.

Legend:
[1] = test system: circadian rhythm of hamsters; details: cited from earlier work
5-HT7 receptor = 5-HT7 receptor (Homo sapiens, UniProt P34969); details: cited from earlier work
5-HT7 receptor promoter = assay: transient transfection luciferase reporter assay with 5-HT7 promoter constructs in HEK293T cells, barbiturate treatment; type: cell-based, human
Experimental: HEK293T cells were maintained in Dulbecco's modified Eagle's medium supplemented with 100 units/ml penicillin, 100 μg/ml streptomycin, and 10% newborn calf serum. These cells were maintained at 37° C. in a humidified atmosphere of 5% CO2.
10^5 cells/cm^2 in 24-well dishes were transfected with 150 ng promoter plasmid and 50 ng neogal (served as an internal control), using the standard calcium phosphate coprecipitation method. 24 hours after transfection, cells were washed once with PBSA and lysed in 150 μl 100 mM potassium phosphate (pH 7.8), 0.2% Triton X-100. The samples were analyzed for luciferase activity as described previously (Vanden Berghe et al., 1998). β-Galactosidase activity was measured using Galacto Star (Tropix) as substrate. For the barbiturate experiments, treatment with different barbiturates started 24 hours after transfection of the cells
According to MatInspector, a putative BARBIE (Barbiturate Inducible Element) is present in the promoter region of the 5-HT7 receptor. To investigate the possible influence of barbiturates on 5-HT7 promoter activity, we transiently transfected HEK293T cells with the different promoter constructs and treated the transfected cells with barbiturates for 24 h (FIG. 6a). […] The reduction varied from 30-50% depending on the promoter construct used and the type of barbiturate.

5-HT7 promoter = assay: luciferase reporter assay in NS20Y cells transiently transfected with the F1000 construct, mithramycin A treatment; type: cell-based, mouse; details: increasing concentrations, 24 h
Experimental: N2A and NS20Y cells were maintained in Dulbecco's modified Eagle's medium supplemented with 100 units/ml penicillin, 100 μg/ml streptomycin, and 10% foetal calf serum. These cells were maintained at 37° C. in a humidified atmosphere of 5% CO2. 4×10^5 cells in 6 well dishes were transfected with 500-1000 ng promoter construct and 300 ng neogal (served as internal control), using JetPEI a cationic polymer transfection reagent (Qbiogene).
Cells were treated with different concentrations of Mithramycin A for 24 hours.
The significance of binding by Sp1 to the 5-HT7 promoter for transcriptional activity was confirmed in experiments with mithramycin A, a compound that interferes with Sp1 binding to GC boxes in DNA.

5-HT7 mRNA = assay: RT-PCR analysis of endogenous 5-HT7 mRNA levels in 1321-N1 cells; type: cell-based; details: 1321-N1 human astrocytoma cells, different concentrations, 24 h
Experimental: (§1) 132-1N1 human astrocytoma cells were seeded into 58 cm^2 plates; 12 hours after seeding the cells were cultured with either medium alone (−) or medium containing 10 nM, 100 nM, 500 nM, 1 μM, 2 μM or 5 μM Mithramycin A (Serva). Total RNA was isolated using a RNeasy, total RNA isolation kit (Qiagen). cDNA was synthesized using AMV reverse transcriptase (Promega). The cDNA was then amplified by PCR in a total volume of 30 μl containing 10 pmol of each primer, 200 μM dNTP, Taq DNA polymerase buffer, 2,5 units of Taq and 5 μl of cDNA. PCR conditions were 94° C., 30 sec; 56° C., 1 min; 72° C., 2 min; for 35 cycles. PCR products were analyzed by electrophoresis through 6% polyacrylamide gel.

GAPDH = assay: RT-PCR analysis of GAPDH mRNA levels in 1321-N1 cells; type: cell-based, human; details: different concentrations, 24 h
Experimental: as §1

[2] = time course, HEK293T cells, 2000luc+ and 1000luc+, 1.5 mM

Sequence of 5-HT7 receptor (P34969 whole entry): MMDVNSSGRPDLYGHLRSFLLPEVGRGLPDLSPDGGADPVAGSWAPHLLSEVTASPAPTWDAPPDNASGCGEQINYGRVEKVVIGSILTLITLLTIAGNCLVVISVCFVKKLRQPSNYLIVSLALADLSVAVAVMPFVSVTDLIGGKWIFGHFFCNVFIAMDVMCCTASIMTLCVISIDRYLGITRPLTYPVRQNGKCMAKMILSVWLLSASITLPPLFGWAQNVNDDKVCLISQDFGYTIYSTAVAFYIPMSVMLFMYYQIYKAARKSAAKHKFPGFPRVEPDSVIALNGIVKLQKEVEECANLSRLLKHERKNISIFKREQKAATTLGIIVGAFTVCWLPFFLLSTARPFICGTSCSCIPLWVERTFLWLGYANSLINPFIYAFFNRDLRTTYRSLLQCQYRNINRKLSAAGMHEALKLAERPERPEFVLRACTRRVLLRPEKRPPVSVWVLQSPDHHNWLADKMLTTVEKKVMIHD

## CCCN(CCC)C1CCc2cccc(O)c2C1 (stereo not drawn) [8-OH-DPAT]
[1]
  effect on circadian rhythm: shifted the circadian rhythm
5-HT7 receptor
  affinity for the 5-HT7 receptor: high affinity

## CCC1(CCC(C)C)C(=O)NC(=O)NC1=O [Amobarbital]
5-HT7 receptor promoter; HEK293T cells, 1,5 mM, 24 h, Amobarbital versus Phenobarbital
  relative potency in repressing promoter activity: somewhat more potent
5-HT7 receptor promoter; HEK293T cells, transient transfection, 1.5 mM barbiturate, 24 h
  effect on 5-HT7 receptor promoter activity: repress 5-HT7 receptor promoter activity

## CCC1(c2ccccc2)C(=O)NC(=O)NC1=O [Phenobarbital]
5-HT7 receptor promoter; [2]
  time at which repressive effect reached a maximum: 16 h
  time at which repressive effect was already present: ≤ 6 h

## mithramycin A
5-HT7 promoter
  5-HT7 promoter activity: dose-dependent loss of promoter activity; also recorded: inhibits 5-HT7 promoter activity
5-HT7 mRNA
  5-HT7 mRNA levels: significant decrease
GAPDH
  levels of GAPDH: unaffected
